≈ marks a conversion by molar mass, not a printed value. Where a name gives a salt, the structure may show the parent alone.
Assays:
human colorectal tumors = assay: Human colon tumor histioculture, inhibition of cell proliferation; type: cell-based; settings: concentration inhibiting by 50% the incorporation of [H]thymidine into DNA, tumors exposed to compounds for 24 hours, then thymidine for 3 days
Description: As used herein, the term "cancer" is synonymous with the terms "malignant tumor" and more generally "tumor". […] See H.L. Davis, Chemotherapy of Large Bowel Cancer, Cancer (Phila.) 50: 2638-2646 (1982); J.R. Neefe and P.S. Schein, Chapter 43: The Management of Disseminated Large-Bowel Cancer in Principals of Cancer Treatment, page 402, ed. S.K. Carter, E. Glatstein and R.B. Livingston, McGraw-Hill Co., 1982; K. Mekhail-Ishak, Cancer Research, 49: 4866-4869 (1989) and P.J. Ferguson and Y.C. Cheng, Cancer Research, 49: 1148-1153 (1989).
Inhibition of tumor cell proliferation was performed in vitro on human colorectal tumors obtained from surgery or biopsy, as described by Vescio et al (Proc. Nat'l. Acad. Sci. USA 84:5029-5033, 1987) with the following modifications: Tumors were cultured 1 day prior to drug addition; tumors were exposed to compounds for 24 hours, washed, and then exposed to ^3[H]thymidine for 3 days.

[1] = Wani et al., J. Med. Chem.; cited from earlier work
9KB = assay: In vitro cytotoxicity test 9KB; type: cell-based; settings: 9KB test, compared with camptothecin
Description: (§1) 10,11-MDO-20(S)-CPT is also very potent in the L-1210 leukemia in vivo life prolongation assay. The synthesis of […] is known and described in Wani et al, J. Med. Chem., 29 (11), 2358-2363 (1986) and in U.S. 4,894,456.

L-1210 leukemia = L-1210 leukemia in vivo life prolongation assay; set-up: species or system mice
Description: as §1

9PS = assay: In vitro cytotoxicity test 9PS; type: cell-based; settings: 9PS test, compared with camptothecin
Description: as §1

topoisomerase I = topoisomerase I (Bos taurus, UniProt A0AAA9TV68); settings: relative to camptothecin; cited from earlier work
Sequence of topoisomerase I (A0AAA9TV68 entry or part of it): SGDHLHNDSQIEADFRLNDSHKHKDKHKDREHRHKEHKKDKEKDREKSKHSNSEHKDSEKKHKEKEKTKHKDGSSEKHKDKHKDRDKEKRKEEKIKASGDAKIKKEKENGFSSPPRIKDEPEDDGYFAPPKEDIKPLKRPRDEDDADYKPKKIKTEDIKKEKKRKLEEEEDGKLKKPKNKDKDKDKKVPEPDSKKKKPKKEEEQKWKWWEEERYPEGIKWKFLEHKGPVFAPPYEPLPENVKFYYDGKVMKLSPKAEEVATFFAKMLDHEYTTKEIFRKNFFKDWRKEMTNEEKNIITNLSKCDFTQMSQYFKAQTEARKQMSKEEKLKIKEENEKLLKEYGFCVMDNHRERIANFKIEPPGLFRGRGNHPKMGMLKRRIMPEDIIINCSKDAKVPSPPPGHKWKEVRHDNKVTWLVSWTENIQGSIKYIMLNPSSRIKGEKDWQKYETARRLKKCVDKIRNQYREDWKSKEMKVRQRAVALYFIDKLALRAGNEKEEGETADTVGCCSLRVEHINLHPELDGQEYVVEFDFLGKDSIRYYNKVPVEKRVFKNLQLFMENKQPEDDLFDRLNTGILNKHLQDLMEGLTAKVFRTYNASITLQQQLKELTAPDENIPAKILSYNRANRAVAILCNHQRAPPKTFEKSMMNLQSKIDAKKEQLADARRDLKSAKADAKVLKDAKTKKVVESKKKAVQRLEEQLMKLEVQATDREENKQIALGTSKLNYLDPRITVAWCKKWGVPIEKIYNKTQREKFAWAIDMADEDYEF

Q: For CCC(O)(C(=O)O)c1cc2n(c(=O)c1CO)Cc1cc3cc4c(cc3nc1-2)OCO4 (racemic) [Compound 8, 10,11-MDO-20(RS)-CPT, Na^+ SALT], which IC50 (human colorectal tumors) is on record?
A: ~10 ng/mL

Q: Which activity [1] does the source give for CCC1(O)C(=O)OCc2c1cc1n(c2=O)Cc2cc3cc(OC)c(OC)cc3nc2-1 (racemic) [10,11-dimethoxy-20(RS)-CPT] here?
A: totally inactive

Q: Which results are given for CC[C@@]1(O)C(=O)OCc2c1cc1n(c2=O)Cc2cc3cc4c(cc3nc2-1)OCO4 [Compound 2, 10,11-MDO-20(S)-CPT]?
A: ED50 (9KB): equal to or more potent than camptothecin itself; life prolongation (L-1210 leukemia): very potent; ED50 (9PS): equal to or more potent than camptothecin itself

Q: With CCC1(O)C(=O)OCc2c1cc1n(c2=O)Cc2cc3c(N)c4c(cc3nc2-1)OCO4 (racemic) [Compound 4, 9-AMINO-10,11-MDO-20(RS)-CPT] as the compound, how does the IC50 (human colorectal tumors) read?
A: ~5 ng/mL (≈ 0.0123 µM)

Q: For CCC1(O)C(=O)OCc2c1cc1n(c2=O)Cc2cc3cc4c(cc3nc2-1)OCO4 (racemic) [Compound 3, 10,11-MDO-20(RS)-CPT], which IC50 (human colorectal tumors) is on record?
A: ~5 ng/mL (≈ 0.0127 µM)

Q: What about the “potency in the inhibition of topoisomerase I” value (topoisomerase I) of the same compound?
A: three to five times the potency of camptothecin

— patent EP0418099B1, “Process of preparation of 10, 11-Methylenedioxy-20 (RS) camptothecin and 10, 11-methylenedioxy-20 (S) - camptothecin analog” (RESEARCH TRIANGLE INSTITUTE, priority 1989, dated 1991)
